Source: US6087336A, “Peptide derivatives useful in treating autoimmune diseases” (Zeneca Limited, priority 1996, dated 2000)

Assays:
[1] = tested on: B52.24 murine T cell hybridoma line; test: Test B: inhibition of T cell activation in vitro; format: cell-based; settings: compared with the other isolated diastereomer
Text: Test B: Inhibition of T cell activation in vitro.
. B52.24 was produced by the fusion of lymph node T cells taken from FHA307-320 immunised HLA-DR4Dw4 transgenic mice (International Patent Application, Publication No WO95/03331) with the BW5147 murine T cell lymphoma line (White et al (1989) J. Immunol. 143, 1822) as outlined in Woods et al (1994) J. Exp. Med. 180, 173-181 and following the general methods for the generation of T cell hybridomas given in Current Protocols in Immunology, Volume 2, 7.21.
Inhibitor peptides at concentrations between 100 and 0.1 μM (or lower) were mixed with the antigenic peptide FHA307-320 in either varying concentrations between 100 and 0.1 μM or at a fixed concentration of 10 μM by dilution in RPM1-1640 culture media (Gibco) in a 96-well mictrotitre plate (Nunc) in a final volume of 100 μl. […]
The culture plates containing supernatants to be assayed were left at room temperature to thaw and […] of supernatant was transferred to fresh 96 round bottomed well plates. […] The contents of each plate were harvested onto glass fibre filter mats and the radioactivity measured using a betaplate scintillation counter.

[2] = molecular target: T1, HLA-DR4Dw4 (Homo sapiens, UniProt P01903+P01911, A100K/A169T/F76Y/I96L/K127E/L162R/M171V/N62H/P40V/Q125Y/R42H/S133A/S149N/S66Y/V115G/V209L/W38E); test: Test A: purified HLA-DR peptide in vitro binding assay; settings: compared with the other isolated diastereomer
T1 construct: a cDNA encoding the β chain is cloned into the transfer vector pAcUW1; made in house; host or cells: Sf21 insect cells, double-recombinant baculovirus
Description: Test A: Purified HLA-DR peptide in vitro binding assay. […]. At the end of the incubation period 100 μl of the incubate is transferred to Enzyme Linked lmmunoSorbant Assay (ELISA) plates (Nunc) previously coated with an anti-MHC antibody (L243--American Type Culture Collection (ATCC) HB55 --as described in Lampson and Levy (1980) J. Immunol. 125, 293-299) at a concentration of 10 μg/ml for 1 hour at room temperature and blocked thereafter for 1 hour with 1% bovine serum albumin (BSA) in PBS and 0.05% Tween 20. After a further 1 hour period the unbound peptide is washed away and a 1/4,000 dilution of streptavidin peroxidase (Sigma) in PBS with 0.01% of a suitable detergent such as NP40 (Sigma) added for 2 hours at room temperature. After further washing, tetramethylbenzidene (TMB) substrate solution (1 TMB tablet (Sigma) in 10 mIs of 0.1 M citrate/acetate buffer, pH 6.0 with 36 μl urea hydrogen peroxide (UHPO) (Fluka)) is added to each of the plates. The reaction is stopped by adding 2M sulphuric acid (10 μl per well) and the absorbance read at 450 nm to quantify the amount of peptide bound. The inhibitory activity of peptides is obtained by plotting absorbance against concentration.
The purified HLA-DR4Dw4 may be obtained as follows:
(i) Expression of HLA-DR in the Baculovirus System
The expression of recombinant proteins in insect cells from baculovirus vectors is an established procedure to obtain high yields of recombinant protein [Luckow, V A & Summers, M D, 1988, Biotechnology, 6, 47-551]. To enable the expression of the heterodimeric HLA-DR, eg. HLA-DR4Dw4, from a single recombinant baculovirus vector (as opposed to having separate recombinant viruses for the α and β chains and then doing a co-infection), a double-recombinant baculovirus is constructed which carries both the α and β chains.
A cDNA encoding the sequence of the α polypeptide is cloned into the transfer vector pacYM1 [Matsuura, Y; Possee, R D; Overton, H A & Bishop, D H L, 1987, J. Gen. […] The molecular genetic techniques used to construct the recombinant vectors are likewise readily available in the literature and are most fully described by Sambrook, J; Fritsch, E F & Maniatis T, (1989) [Molecular Cloning. […]
To create the double-recombinant baculovirus, a cDNA encoding the β chain is cloned into the transfer vector pAcUW1 [Weyer, U; Knight, S & Possee, R D, 1990, J. Gen. […] Double-recombinant viruses are detected by spotting insect cells, infected with randomly picked viruses from the transfection, onto membranes and reacting them with a monoclonal antibody, e.g. L243, which specifically recognises the HLA-DR heterodimer. Binding of the antibody to Sf21 insect cells is detected using standard flow cytometry techniques, readily available in the literature. […]

Substance: Phv-Ala-Ala-Ala-Lys-Val-III-Ala-Pip-NH2 [more polar diastereomer]
- relative potency of diastereomers in Test B [1]: more potent than the less polar diastereomer
- relative potency of diastereomers in Test A [2]: more potent than the less polar diastereomer
